# Experimental data taken from patent US20170112741A1, “AGENT FOR AMELIORATING SKIN SYMPTOM, HAIR GROWTH AGENT OR SLIMMING AGENT” (GOLDCREST MEDICINE INSTITUTE CO., LTD., priority 2014, published 2017).
# Columns and labels:
# moles = experiment: Effect of oral administration on 4 moles on left ankle and 4 small moles around them; assay type: in vivo, human; conditions: for Color and shape of mole No. 4, left ankle: Jun. 20, 2013: brown circular
# Description: On the part slightly above the left ankle, 4 black moles were observed. From a direction of the little toe of the left foot, there were 3 black circular moles having a similar diameter ranging from about 3.7 mm to about 4 mm, present almost in one line with an interval of 2.4 cm and 2.6 cm. […]
# At a position 6 mm above the second mole, there was a red oval mole of 1 mm×1.7 mm. […]
# [1] = Slimming effect of cabergoline 0.25 mg/week in patient A; assay type: in vivo, human; conditions: for Obesity BMI / Body weight / Weight loss / Total weight loss (%): patient A, 0.25 mg/week
# Procedure: Due to an illness, patient A had to undergo the cabergoline treatment from the end of June of year 2013, and for this reason, attempted to lose weight again. Since it was expected that the body weight would be gained back, the target value was set at 56.5 kg, and a long-term plan without any exercise or restricted diet was adopted. However, regular meals were taken and only the overeating was strictly avoided.
# Meanwhile, since cabergoline was administered at 0.25 mg/week for 3 months of the measurement period, the total dose of cabergoline was calculated to be 3 mg. […] In this regard, it is considered that no side effect would appear with administration of such a small amount.
# [2] = Jan. 17, 2014 (after 210 days), listed as novel skin treatment agent
# [3] = Jan. 17, 2014 (after 210 days), size 1.8 × 2.2 wrapped over two grid lines, Jun. 20, 2013: 3.9 mm
# [4] = Mar. 20, 2014 (after 272 days), vague border, Jun. 20, 2013: black circular
smiles,measurement,setting,value
C=CCN1C[C@H](C(=O)N(CCCN(C)C)C(=O)NCC)C[C@@H]2c3cccc4[nH]cc(c34)C[C@H]21 [cabergoline],"Color and shape of mole No. 1, left ankle","moles; Dec. 4, 2013 (after 166 days), Jun. 20, 2013: black circular",a red circular mole
same,"Diameter of mole No. 1, left ankle","moles; Dec. 4, 2013 (after 166 days), Jun. 20, 2013: black circular, diameter 3.7 mm",1.2 mm. The color
same,"Color and shape of mole No. 4, left ankle","moles; Dec. 4, 2013 (after 166 days)",yellow-brown circular mole
same,"Diameter of mole No. 4, left ankle","moles; Dec. 4, 2013 (after 166 days), Jun. 20, 2013: brown circular mole of 2.0 × 1.8 mm","with a diameter of 1.0 mm,"
same,Diameter of the 2 red moles among the small moles above mole No. 3,"moles; Dec. 4, 2013 (after 166 days), Jun. 20, 2013: diameter 1.5 mm",diameter of 0.5 mm.
same,"Color and shape of mole No. 3, left ankle","moles; Dec. 4, 2013 (after 166 days), cell continues: brown rectangular mole, vague border, Jun. 20, 2013: black circular",The mole shrunk to a blackish
same,"Color of mole No. 2, left ankle","moles; Dec. 4, 2013 (after 166 days), oval, vague border, Jun. 20, 2013: black circular",faded to light brown.
same,State of the 3 small moles above mole No. 3,"moles; Jan. 17, 2014 (after 210 days)",completely disappeared
same,State of the small mole above mole No. 2,"moles; Jan. 17, 2014 (after 210 days)",completely disappeared
same,"Diameter of mole No. 1, left ankle","moles; Jan. 17, 2014 (after 210 days), Jun. 20, 2013: 3.7 mm",1.0 mm.
same,"Color and shape of mole No. 1, left ankle","moles; Jan. 17, 2014 (after 210 days), Jun. 20, 2013: black circular",Red circular mole
same,"Color and shape of mole No. 4, left ankle","moles; Jan. 17, 2014 (after 210 days)",Light brown line-shaped
same,State of the 3 small moles above mole No. 3,moles; [2],The upper 3 moles disappeared.
same,State of the small mole above mole No. 2,moles; [2],The upper mole disappeared.
same,"Length of mole No. 2, left ankle",moles; [3],2.2 mm with a vague border.
same,"Width of mole No. 2, left ankle",moles; [3],1.8 mm
same,"Color and shape of mole No. 2, left ankle","moles; Jan. 17, 2014 (after 210 days), vague border, Jun. 20, 2013: black circular",Light brown oval mole
same,"Diameter of mole No. 1, left ankle","moles; Mar. 20, 2014 (after 272 days), Jun. 20, 2013: 3.7 mm",1 mm
same,"Diameter of mole No. 1, left ankle","moles; Mar. 20, 2014 (after 272 days), Jun. 20, 2013: 3.7 mm, listed as novel skin treatment agent",diameter of 1.0 mm.
same,"Diameter of mole No. 2, left ankle","moles; Mar. 20, 2014 (after 272 days), Jun. 20, 2013: 3.9 mm",2 mm
same,"Diameter of mole No. 2, left ankle","moles; Mar. 20, 2014 (after 272 days), Jun. 20, 2013: 3.9 mm, listed as novel skin treatment agent",diameter of 2.0 mm with a vague
same,"Color and shape of mole No. 1, left ankle","moles; Mar. 20, 2014 (after 272 days), Jun. 20, 2013: black circular",red circular shape
same,"Color and shape of mole No. 1, left ankle","moles; Mar. 20, 2014 (after 272 days), Jun. 20, 2013: black circular, listed as novel skin treatment agent",Light red circular
same,"Color and shape of mole No. 4, left ankle","moles; Mar. 20, 2014 (after 272 days), cell continues: shaped mole",only a trace of a faint line shape was observed
same,"Color and shape of mole No. 4, left ankle","moles; Mar. 20, 2014 (after 272 days), cell continues: shaped mole, listed as novel skin treatment agent",Very light brown line-
same,"Color and shape of mole No. 2, left ankle",moles; [4],pale light brown circular mole
same,"Color and shape of mole No. 3, left ankle",moles; [4],blackish brown color and an almost rectangular shape
same,"Color and shape of mole No. 3, left ankle","moles; Mar. 20, 2014 (after 272 days), vague border, Jun. 20, 2013: black circular, listed as novel skin treatment agent",Dark brown rectangular mole of
same,Hungry feeling,[1]; patient A during weight loss under cabergoline,no hungry feeling
same,Waist size,"[1]; patient A under cabergoline, reduced from 91 cm at a maximum",83 cm
same,Body weight course,"[1]; patient A under cabergoline, target value 56.5 kg, no exercise or restricted diet",steadily reduced to the target value
same,Obesity BMI,[1]; December 12,24.0
same,Body weight,[1]; December 12 (15 weeks),56.1 kg
same,Weight loss,"[1]; December 12, since previous measurement",0.7 kg
same,Total weight loss (%),"[1]; December 12, vs Sep. 5, 2013",−10.0%
same,Body weight,[1]; November 14,57.5 kg
same,Obesity BMI,[1]; November 14,24.6
same,Weight loss,"[1]; November 14, since previous measurement",0.8 kg
same,Total weight loss (%),"[1]; November 14, vs Sep. 5, 2013",−7.7%
same,Body weight,[1]; November 28,56.8 kg
same,Obesity BMI,[1]; November 28,24.3
same,Weight loss,"[1]; November 28, since previous measurement",0.7 kg
same,Total weight loss (%),"[1]; November 28, vs Sep. 5, 2013",−8.9%
same,Body weight,[1]; October 3,60.1 kg
